Data: US20260317312A1, “ISOXAZOLIDINES AS RIPK1 INHIBITORS AND USE THEREOF” (GENZYME CORPORATION, priority 2023, published 2026)

Legend:
[1] = molecular target: T1, hRIPK1 (aa 1-375) fusion protein (Homo sapiens, UniProt Q13546); assay: Receptor-Interacting Protein Kinase 1 inhibition, ADP Glo assay (conversion of ATP to ADP due to autophosphorylation); type: biochemical; details: ATP 50 μM, 30 min preincubation, 240 min incubation, room temperature, DMSO 1%
T1 construct: hRIPK1 (aa 1-375) fusion protein
T1 sequence (Q13546 1-375): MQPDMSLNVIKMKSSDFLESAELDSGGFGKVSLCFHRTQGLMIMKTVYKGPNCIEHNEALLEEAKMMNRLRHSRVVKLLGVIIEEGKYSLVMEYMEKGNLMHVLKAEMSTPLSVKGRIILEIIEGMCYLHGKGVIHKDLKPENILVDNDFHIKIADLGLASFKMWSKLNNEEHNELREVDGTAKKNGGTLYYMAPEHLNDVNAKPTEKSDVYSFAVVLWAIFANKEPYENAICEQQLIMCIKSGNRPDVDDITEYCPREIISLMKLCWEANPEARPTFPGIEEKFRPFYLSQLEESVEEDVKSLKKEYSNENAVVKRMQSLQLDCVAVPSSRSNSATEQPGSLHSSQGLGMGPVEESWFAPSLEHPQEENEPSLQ
Experimental: The catalytic activity of RIPK1 was measured by monitoring the conversion of Adenosine triphosphate (ATP) to Adenosine diphosphate (ADP) due to autophosphorylation using an ADP-Glo kinase kit (Promega, catalog no. V9104).
In detail, 2 μl recombinantly produced hRIPK1 (aa 1-375) fusion protein (end concentration 3.6 μg/ml) and 2 μl compound (end concentration 33300-1.69 nM; DMSO end concentration 1%) were incubated for 30 minutes at room temperature and then 2 μl ATP (ADP Glo kit, end concentration 50 μM) were added. After another 240 minutes incubation at room temperature, 5 μl Promega ADP-Glo reagent I was added to quench the reaction and deplete unconsumed ATP. After an incubation period of 30 minutes, 10 μl Promega ADP-Glo detection reagent II was added resulting in conversion of ADP to ATP, which generates a light-reaction between luciferase and luciferin. Luminescence was quantified after 30 minutes with a Pherastar FS (BMG LABTECH, Ortenberg).
The adjustment was obtained by nonlinear regression using the Levenberg Marquardt algorithm.

U937 cells = assay: Cellular assay in U937 cells to measure activity of RIPK1-inhibitors on cell death (necroptosis); type: cell-based; details: overnight (18 to 24 hrs), 37° C., MTS readout
Excerpt: Upon TNF-Receptor I ligation, Ser/Thr kinase RIPK1 is recruited to a transient receptor complex I. Upon modification of RIPK1 which promotes activation of RIPK1, complex lib can form, that involves recruitment of RIPK3 and MLKL (mixed lineage-kinase domain-like protein) which then translocates from the cytosol to the plasma membrane to execute cell death (Cai, Z. et al, Nat. Cell Biol. (2014)16:55-65).
Cell death was quantified in 96 well plates by determination of the amount of live cell using a CellTiter 96 Aqueous reagent (Promega), a calorimetric method to measure the number of live cells by reducing tetrazolium compound [3-(4,5-dimethylthiazol-2-yl)-5-(3-carboxymethoxyphenyl)-2-(4-sulfophenyl)-2H-tetrazolium, inner salt; MTS] into formazan. Absorbance of formazan was read at 490 nm. The inhibitory activity of the test compound was quantified in a concentration response curve (CRC) experiment.
Compounds were obtained as 10 mM stock solutions and were diluted 1 to 10 volumes with DMSO to yield a 1 mM solution. From this solution 2 μl were diluted with 998 μl growth medium. 100 μl of 2 μM compound solution was further diluted sequentially with a dilution factor of 2.5 by adding 150 μl growth medium. A total of 10 concentrations were tested ranging from 10 μM to 0.26 nM or from 1 μM to 0.07 nM.
U937 cells were cultured in RPM11640 Glutamax and 10% heat inactivated FBS. 50 μl cell suspension containing 1×10^6 cells/ml supplemented with 50 μM zVAD.fmk (Benzyloxycarbonyl-Val-Ala-Asp (Ome) fluoromethylketone) and 100 ng/ml recombinant human TNFα were dispensed in each well of a 96-well plate. 50 μl of compound dilutions (described in Cellular assay in U937 cells) were added and the cell suspension incubated overnight (18 to 24 hrs) at 37° C., 5% CO2 in a humidified atmosphere (95% rH). High (no compound) and low control (no TNFα, zVAD.fmk) were tested with 7 replicates; all compound concentrations were tested in duplicates on each experimental plate.
CellTiter 96 Aqueous reagent was mixed (100 μl PMS (phenazine methosulfate) solution/2 ml MTS (3-(4,5-[…])-5-(3-carboxymethoxyphenyl)-2-(4-sulfophenyl)-2H-tetrazolium, inner salt) solution) and 20 μl were added per well. After 4 hrs incubation at 37° C. (5% CO2 95% rH) optical density was measured at 490 nm on a microplate reader (Tecan Infinite M1000).
The % inhibition is expressed as percentage of the maximal inhibition value obtained in the absence of TNFα/zVAD.fmc.

[2] = Homo sapiens, U-937, TNFα/zVAD.fmk induced cell death (necroptosis)
[3] = TNFα/zVAD.fmk induced cell death (necroptosis)

Row | IC50 [1] | Compound | IC50 (U937 cells; [2]) | IC50 (U937 cells; [3])
1 | 40 nM | N#Cc1cc(N[C@H]2C[C@@H](C(=O)N3OCC[C@H]3c3ccc(F)c(F)c3)C2)ncn1 [Compound 22, cis-6-((3-((S)-3-(3,4-difluorophenyl)isoxazolidine-2-carbonyl)cyclobutyl)amino)pyrimidine-4-carbonitrile] | 313 nM | –
2 | 44 nM | N#Cc1cc(N[C@H]2C[C@@H](C(=O)N3OCC[C@H]3c3ccc(Cl)cc3)C2)ncn1 [Compound 23, cis-6-((3-((S)-3-(4-chlorophenyl)isoxazolidine-2-carbonyl)cyclobutyl)amino)pyrimidine-4-carbonitrile] | 234 nM | –
3 | 13 nM | N#Cc1ccnc(N[C@H]2C[C@@H](C(=O)N3OCC[C@H]3c3ccc(Cl)cc3)C2)n1 [Compound 24, cis-2-((3-((S)-3-(4-chlorophenyl)isoxazolidine-2-carbonyl)cyclobutyl)amino)pyrimidine-4-carbonitrile] | – | 264 nM
4 | 64 nM | N#Cc1cc(F)cc(N[C@H]2C[C@@H](C(=O)N3OCC[C@H]3c3ccc(Cl)cc3)C2)c1 [Compound 25, cis-3-((3-((S)-3-(4-chlorophenyl)isoxazolidine-2-carbonyl)cyclobutyl)amino)-5-fluorobenzonitrile] | 420 nM | –
5 | 52 nM | N#Cc1cc(F)cc(N[C@H]2C[C@@H](C(=O)N3OCC[C@H]3c3cccc(F)c3)C2)c1 [Compound 26, cis-3-fluoro-5-((3-((S)-3-(3-fluorophenyl)isoxazolidine-2-carbonyl)cyclobutyl)amino)benzonitrile] | 152 nM | –
6 | 28 nM | N#Cc1cc(F)cc([C@@H]2CCON2C(=O)[C@H]2C[C@@H](Nc3ccc(F)c(C#N)c3)C2)c1 [Compound 32, cis-5-((3-((S)-3-(3-cyano-5-fluorophenyl)isoxazolidine-2-carbonyl)cyclobutyl)amino)-2-fluorobenzonitrile] | 50 nM | –
7 | 22 nM | N#Cc1cc(N[C@H]2C[C@@H](C(=O)N3OCC[C@H]3c3cncc(F)c3)C2)ccc1F [Compound 33, cis-2-fluoro-5-((3-((S)-3-(5-fluoropyridin-3-yl)isoxazolidine-2-carbonyl)cyclobutyl)amino)benzonitrile] | – | 61 nM
8 | 20 nM | N#Cc1cc(NC[C@H]2CC[C@H](C(=O)N3OCC[C@H]3c3cncc(F)c3)CC2)ccc1F [Compound 34, trans-2-fluoro-5-(((4-((S)-3-(5-fluoropyridin-3-yl)isoxazolidine-2-carbonyl)cyclohexyl)methyl)amino)benzonitrile] | 11 nM | –
9 | 42 nM | N#Cc1cc(F)cc(N[C@H]2C[C@@H](C(=O)N3OCC[C@H]3c3cncc(F)c3)C2)c1 [Compound 36, cis-3-fluoro-5-((3-((S)-3-(5-fluoropyridin-3-yl)isoxazolidine-2-carbonyl)cyclobutyl)amino)benzonitrile] | 98 nM | –
10 | 18 nM | N#Cc1cc(F)cc([C@@H]2CCON2C(=O)[C@H]2C[C@@H](n3cnc4ccccc43)C2)c1 [Compound 40, cis-3-((S)-2-(3-(1H-benzo[d]imidazol-1-yl)cyclobutane-1-carbonyl)isoxazolidin-3-yl)-5-fluorobenzonitrile] | 262 nM | –
11 | 16 nM | O=C([C@H]1C[C@@H](n2cnc3ccccc32)C1)N1OCC[C@H]1c1cc(F)cc(F)c1 [Compound 41, cis-(3-(1H-benzo[d]imidazol-1-yl)cyclobutyl)((S)-3-(3,5-difluorophenyl)isoxazolidin-2-yl)methanone] | 61 nM | –
12 | 156 nM | O=C([C@H]1C[C@@H](n2cnc3ccccc32)C1)N1OCC[C@H]1c1cncc(F)c1 [Compound 42, cis-(3-(1H-benzo[d]imidazol-1-yl)cyclobutyl)((S)-3-(5-fluoropyridin-3-yl)isoxazolidin-2-yl)methanone] | 921 nM | –

The remaining lines, values behind:

Row | Compound | IC50 [1] | IC50 (U937 cells; [2]) | IC50 (U937 cells; [3])
13 | N#Cc1cc(F)cc(N[C@H]2C[C@@H](C(=O)N3OCC[C@H]3c3ccc(F)c(F)c3)C2)c1 [Compound 27, cis-3-((3-((S)-3-(3,4-difluorophenyl)isoxazolidine-2-carbonyl)cyclobutyl)amino)-5-fluorobenzonitrile] | 49 nM | 170 nM | –
14 | N#Cc1cc(F)cc([C@@H]2CCON2C(=O)[C@H]2CC[C@H](CNc3cc(C(N)=O)ncn3)CC2)c1 [Compound 29, trans-6-(((4-((S)-3-(3-cyano-5-fluorophenyl)isoxazolidine-2-carbonyl)cyclohexyl)methyl)amino)pyrimidine-4-carboxamide] | 86 nM | 561 nM | –
15 | N#Cc1cc(F)cc([C@@H]2CCON2C(=O)[C@H]2CC[C@H](CNc3cc(C#N)ncn3)CC2)c1 [Compound 30, trans-6-(((4-((S)-3-(3-cyano-5-fluorophenyl)isoxazolidine-2-carbonyl)cyclohexyl)methyl)amino)pyrimidine-4-carbonitrile] | 59 nM | 264 nM | –
16 | Cn1ccc2c(NC[C@H]3CC[C@H](C(=O)N4OCC[C@H]4c4cc(F)cc(C#N)c4)CC3)ncnc21 [Compound 31, trans-3-fluoro-5-((S)-2-(4-(((7-methyl-7H-pyrrolo[2,3-d]pyrimidin-4-yl)amino)methyl)cyclohexane-1-carbonyl)isoxazolidin-3-yl)benzonitrile] | 110 nM | 373 nM | –
17 | N#Cc1cc(F)cc([C@@H]2CCON2C(=O)[C@H]2CC[C@H](CNc3ccc(F)c(C#N)c3)CC2)c1 [Compound 35, trans-5-(((4-((S)-3-(3-cyano-5-fluorophenyl)isoxazolidine-2-carbonyl)cyclohexyl)methyl)amino)-2-fluorobenzonitrile] | 18 nM | – | 4 nM
18 | N#Cc1cc(F)cc(N[C@H]2C[C@@H](C(=O)N3OCC[C@H]3c3cc(F)cc(C#N)c3)C2)c1 [Compound 37, cis-3-((S)-2-(3-((3-cyano-5-fluorophenyl)amino)cyclobutane-1-carbonyl)isoxazolidin-3-yl)-5-fluorobenzonitrile] | 34 nM | 45 nM | –
19 | N#Cc1cc(F)cc(NC[C@H]2CC[C@H](C(=O)N3OCC[C@H]3c3cc(F)cc(C#N)c3)CC2)c1 [Compound 38, trans-3-((S)-2-(4-(((3-cyano-5-fluorophenyl)amino)methyl)cyclohexane-1-carbonyl)isoxazolidin-3-yl)-5-fluorobenzonitrile] | 27 nM | 22 nM | –
20 | N#Cc1cc(F)cc(N[C@H]2CC[C@@H](C(=O)N3OCC[C@H]3c3cc(F)cc(C#N)c3)CC2)c1 [Compound 39, cis-3-((S)-2-(4-((3-cyano-5-fluorophenyl)amino)cyclohexane-1-carbonyl)isoxazolidin-3-yl)-5-fluorobenzonitrile] | 111 nM | 401 nM | –
21 | N#Cc1cc(OC[C@H]2CC[C@H](C(=O)N3OCC[C@H]3c3cc(F)cc(F)c3)CC2)ccc1F [Compound 43, trans-5-((4-((S)-3-(3,5-difluorophenyl)isoxazolidine-2-carbonyl)cyclohexyl)methoxy)-2-fluorobenzonitrile] | 11 nM | 2 nM | –
